Measured values as given in patent publication US20260356957A1, “METHODS FOR TREATMENT OF NON-SMALL CELL LUNG CANCER (NSCLC)” (Janssen Biotech, Inc., priority 2023, published 2026).
Marks after values point to notes of the source that are not given here.

Assay: MARIPOSA Phase 3, adverse events
Type: in vivo, human
Excerpt: • 1. […] Incidence and Severity of Adverse Events (AEs) [Time Frame: Up to approximately 60 months]. Incidence and severity of treatment emergent adverse events (TEAEs) will be reported. Any adverse event occurring at or after the initial administration of study treatment through the day of last dose plus 30 days, or until the start of subsequent anticancer therapy (if earlier), is considered to be treatment emergent. • 8. Number of Participants with Clinical Laboratory Abnormalities [Time Frame: Up to approximately 60 months]. Number of participants with clinical laboratory abnormalities (serum chemistry, hematology, blood coagulation, and urine samples) will be reported. • 9. Number of Participants with Vital Signs Abnormalities [Time Frame: Up to approximately 60 months]. Number of participants with vital signs abnormalities (temperature, heart rate, respiratory rate, oxygen saturation, blood pressure) will be reported. • 10. Number of Participants with Physical Examination Abnormalities [Time Frame: Up to approximately 60 months]. Number of participants with physical examination abnormalities will be reported. • 11. […] The NSCLC-SAQ contains 7 items that assess cough, pain, dyspnea, fatigue, and poor appetite over a 7-day recall period. Each multi-item scale and individual item will be summarized using count and percent by visit. • 15. […] EORTC-QLQ-C30 is a core 30-item questionnaire for evaluating the health-related quality of life (HRQOL) of participants participating in cancer clinical studies. • 16.

[1] = AE of interest, grouped preferred terms
[2] = Grade 5 AE, deemed treatment-related
[3] = TEAE leading to discontinuations of any study agent
[4] = TEAE leading to dose reductions of any study agent
[5] = TEAE leading to interruptions of any study agent
[6] = adverse events, listed as osimertinib
[7] = pneumonitis and interstitial lung disease

## C=CC(=O)Nc1cc(Nc2nccc(-c3cn(C)c4ccccc34)n2)c(OC)cc1N(C)CCN(C)C [Osimertinib]
AE of interest
  Venous thromboembolism, No. of days to first onset, median (range): 194 (10-675) days
[1]
  Any venous thromboembolism event, No. of patients (%): 39 (9) no. (%)
  Rash, Duration of event, median no. of days (range): 51 (1-625) days
  Rash, No. of days to first onset, median (range): 29 (1-799) days
  Rash, No. of events, any grade: 238
  Rash, No. of patients (%): 210 (49) no. (%)
AE, All grades
  Anemia: 91 (21) no. (%)
  Asthenia: 46 (11) no. (%)
  COVID-19: 103 (24) no. (%)
  Constipation: 55 (13) no. (%)
  Cough: 88 (21) no. (%)
  Decreased appetite: 76 (18) no. (%)
  Dermatitis acneiform: 55 (13) no. (%)
  Diarrhea: 190 (44) no. (%)
  Dry skin: 60 (14) no. (%)
  Dyspnea: 68 (16) no. (%)
  Fatigue: 42 (10) no. (%)
  Hypoalbuminemia: 26 (6) no. (%)
  Hypocalcemia: 35 (8) no. (%)
  Increased alanine aminotransferase: 57 (13) no. (%)
  Increased aspartate aminotransferase: 58 (14) no. (%)
  Infusion-related reaction: 0 no. (%)
  Leukopenia: 66 (15) no. (%)
  Muscle spasms: 32 (7) no. (%)
  Nausea: 58 (14) no. (%)
  Pain in extremity: 22 (5) no. (%)
  Paronychia: 121 (28) no. (%)
  Peripheral edema: 24 (6) no. (%)
  Pruritus: 73 (17) no. (%)
  Pulmonary embolism: 20 (5) no. (%)
  Rash: 131 (31) no. (%)
  Stomatitis: 90 (21) no. (%)
  Thrombocytopenia: 84 (20) no. (%)
AE, Grade ≥3
  Anemia: 7 (2) no. (%)
  Asthenia: 4 (1) no. (%)
  COVID-19: 9 (2) no. (%)
  Constipation: 0 no. (%)
  Cough: 0 no. (%)
  Decreased appetite: 6 (1) no. (%)
  Dermatitis acneiform: 0 no. (%)
  Diarrhea: 3 (1) no. (%)
  Dry skin: 1 (0.2) no. (%)
  Dyspnea: 17 (4) no. (%)
  Fatigue: 4 (1) no. (%)
  Hypoalbuminemia: 0 no. (%)
  Hypocalcemia: 0 no. (%)
  Increased alanine aminotransferase: 8 (2) no. (%)
  Increased aspartate aminotransferase: 5 (1) no. (%)
  Infusion-related reaction: 0 no. (%)
  Leukopenia: 0 no. (%)
  Muscle spasms: 0 no. (%)
  Nausea: 1 (0.2) no. (%)
  Pain in extremity: 0 no. (%)
  Paronychia: 2 (0.5) no. (%)
  Peripheral edema: 0 no. (%)
  Pruritus: 1 (0.2) no. (%)
  Pulmonary embolism: 10 (2) no. (%)
  Rash: 3 (1) no. (%)
  Stomatitis: 1 (0.2) no. (%)
  Thrombocytopenia: 5 (1) no. (%)
Grade 5 AE
  Acinetobacter sepsis: 0 no. (%)
  Acute respiratory distress syndrome: 0 no. (%)
  Arteriosclerosis coronary artery: 0 no. (%)
  COVID-19: 3 (1) no. (%)
  COVID-19 pneumonia: 0 no. (%)
  Cardiac failure: 1 (0.2) no. (%)
  Cardiopulmonary failure: 0 no. (%)
  Cerebral hemorrhage: 1 (0.2) no. (%)
  Cerebral infarction: 0 no. (%)
  Cerebrovascular accident: 1 (0.2) no. (%)
  Circulatory collapse: 0 no. (%)
  Death: 2 (0.5) no. (%)
  Dyspnea: 3 (1) no. (%)
  Hemoptysis: 1 (0.2) no. (%)
  Ischemic cerebral infarction: 0 no. (%)
  Ketoacidosis: 1 (0.2) no. (%)
  Lower respiratory tract infection: 1 (0.2) no. (%)
  Metabolic acidosis: 1 (0.2) no. (%)
  Myocardial infarction: 0 no. (%)
  Myocardial rupture: 0 no. (%)
  Pericardial effusion: 1 (0.2) no. (%)
  Pleural effusion: 1 (0.2) no. (%)
  Pneumonia: 4 (1) no. (%)
  Pneumonia aspiration: 1 (0.2) no. (%)
  Pulmonary embolism: 2 (0.5) no. (%)
  Respiratory failure: 2 (0.5) no. (%)
  Respiratory tract infection: 1 (0.2) no. (%)
  Sepsis: 1 (0.2) no. (%)
  Septic shock: 1 (0.2) no. (%)
  Sudden death: 1 (0.2) no. (%)
  Urosepsis: 0 no. (%)
[2]
  Coronary artery disease: 0 no. (%)
  Interstitial lung disease: 2 (0.5)§ no. (%)
  Pneumonitis: 0 no. (%)
[3]
  Asthenia: 1 (0.2) no. (%)
  Dermatitis acneiform: 0 no. (%)
  Hypoalbuminemia: 0 no. (%)
  Infusion related reaction: 0 no. (%)
  Interstitial lung disease: 4 (1) no. (%)
  Paronychia: 0 no. (%)
  Peripheral edema: 0 no. (%)
  Pneumonia: 3 (1) no. (%)
  Pneumonitis: 7 (2) no. (%)
  Pulmonary embolism: 2 (0.5) no. (%)
  Rash: 0 no. (%)
[4]
  Dermatitis acneiform: 0 no. (%)
  Folliculitis: 0 no. (%)
  Hypoalbuminemia: 0 no. (%)
  Increased alanine aminotransferase: 0 no. (%)
  Increased aspartate aminotransferase: 0 no. (%)
  Mucosal inflammation: 0 no. (%)
  Neuropathy peripheral: 0 no. (%)
  Paresthesia: 0 no. (%)
  Paronychia: 1 (0.2) no. (%)
  Peripheral edema: 0 no. (%)
  Peripheral sensory neuropathy: 0 no. (%)
  Rash: 2 (0.5) no. (%)
  Rash maculo-papular: 0 no. (%)
  Rash pustular: 0 no. (%)
  Skin lesion: 0 no. (%)
  Stomatitis: 0 no. (%)
[5]
  Asthenia: 1 (0.2) no. (%)
  COVID-19: 36 (8) no. (%)
  Deep vein thrombosis: 2 (0.5) no. (%)
  Dermatitis acneiform: 1 (0.2) no. (%)
  Diarrhea: 6 (1) no. (%)
  Hypoalbuminemia: 0 no. (%)
  Increased alanine aminotransferase: 12 (3) no. (%)
  Increased aspartate aminotransferase: 11 (3) no. (%)
  Increased γ-glutamyltransferase: 5 (1) no. (%)
  Paronychia: 4 (1) no. (%)
  Peripheral edema: 0 no. (%)
  Pneumonia: 18 (4) no. (%)
  Pulmonary embolism: 9 (2) no. (%)
  Rash: 4 (1) no. (%)
  Stomatitis: 4 (1) no. (%)
VTE
  Any venous thromboembolism event leading to death: 2 (0.5) no. (%)
  Any venous thromboembolism event leading to discontinuation of any agent: 2 (0.5) no. (%)
  Any venous thromboembolism event, Grade 1: 0 no. (%)
  Any venous thromboembolism event, Grade 2: 24 (6) no. (%)
  Any venous thromboembolism event, Grade 3: 12 (3) no. (%)
  Any venous thromboembolism event, Grade 4: 1 (0.2) no. (%)
  Any venous thromboembolism event, Grade 5: 2 (0.5) no. (%)
VTE event
  Axillary vein thrombosis: 0 no. (%)
  Deep vein thrombosis: 11 (3) no. (%)
  Embolism: 3 (1) no. (%)
  Embolism venous: 1 (0.2) no. (%)
  Jugular vein thrombosis: 0 no. (%)
  Pelvic venous thrombosis: 1 (0.2) no. (%)
  Portal vein thrombosis: 0 no. (%)
  Post thrombotic syndrome: 0 no. (%)
  Pulmonary embolism: 20 (5) no. (%)
  Pulmonary infarction: 0 no. (%)
  Pulmonary thrombosis: 1 (0.2) no. (%)
  Sigmoid sinus thrombosis: 0 no. (%)
  Superficial vein thrombosis: 0 no. (%)
  Superior sagittal sinus thrombosis: 0 no. (%)
  Superior vena cava syndrome: 1 (0.2) no. (%)
  Thrombophlebitis: 4 (1) no. (%)
  Thrombosis: 1 (0.2) no. (%)
  Vena cava thrombosis: 0 no. (%)
  Venous thrombosis: 1 (0.2) no. (%)
  Venous thrombosis limb: 1 (0.2) no. (%)
Adverse events
  Any event leading to discontinuations of any study agent: 58 (14) no. (%)
  Any event leading to interruptions of any study agent: 165 (39) no. (%)
  Any event leading to reductions of any study agent: 23 (5) no. (%)
  Any event resulting in death: 31 (7) no. (%)
  Any serious event: 143 (33) no. (%)
  Grade ≥3: 183 (43) no. (%)
Adverse events, safety population
  Any event: 425 (99) no. (%)
[6]
  Any event leading to discontinuations of any study agent: 58 (14%) no. (%)
  Any event leading to interruptions of any study agent: 165 (39%) no. (%)
  Any event leading to reductions of any study agent: 23 (5%) no. (%)
  Any event resulting in death: 31 (7%) no. (%)
Any grade, both groups
  Interstitial lung disease/pneumonitis: 3%
Both groups
  Interstitial lung disease/pneumonitis, grade 3 or higher: 1%
In vivo
  Adverse events of grade 3 or higher: 43%
  Discontinuations of all agents due to treatment-related adverse events: 3%
  Receiving anticoagulation at time of first VTE: 0%
  Serious adverse events: 33%
  Venous thromboembolic (VTE) events: 9%
Of VTE events
  VTE events in the first 4 months of treatment: 33%
On anticoagulants
  First bleeding event while on anticoagulants: 14 (3) no. (%)
  Recurrent venous thromboembolism event while on anticoagulants: 0 no. (%)
On study
  Anticoagulation concomitant use: 81 (19) no. (%)
[7]
  Interstitial lung disease, Duration of event, median no. of days (range): 20 (1-189) days
  Interstitial lung disease, No. of days to first onset, median (range): 115 (9-512) days
  Interstitial lung disease, No. of patients (%): 13 (3) no. (%)
Serious TEAE
  Alanine aminotransferase increased: 6 (1) no. (%)
  COVID-19: 10 (2) no. (%)
  Cardiac failure: 5 (1) no. (%)
  Deep vein thrombosis: 2 (0.5) no. (%)
  Dyspnea: 11 (3) no. (%)
  Hypoalbuminemia: 0 no. (%)
  Hyponatremia: 4 (1) no. (%)
  Infusion related reaction: 0 no. (%)
  Interstitial lung disease: 5 (1) no. (%)
  Pericardial effusion: 5 (1) no. (%)
  Pleural effusion: 17 (4) no. (%)
  Pneumonia: 21 (5) no. (%)
  Pneumonitis: 8 (2) no. (%)
  Pulmonary embolism: 10 (2) no. (%)
  Rash: 0 no. (%)
  Respiratory failure: 2 (0.5) no. (%)
treatment-related AE
  Any event: 378 (88) no. (%)
  Any event resulting in death: 2 (0.5) no. (%)
  Any serious event: 24 (6) no. (%)
  Grade ≥3: 59 (14) no. (%)
treatment-related AE, All
  Decreased appetite: 40 (9) no. (%)
  Dermatitis acneiform: 54 (13) no. (%)
  Diarrhea: 149 (35) no. (%)
  Dry skin: 54 (13) no. (%)
  Hypoalbuminemia: 11 (3) no. (%)
  Increased alanine aminotransferase: 38 (9) no. (%)
  Increased aspartate aminotransferase: 34 (8) no. (%)
  Infusion-related reaction: 0 no. (%)
  Nausea: 32 (7) no. (%)
  Paronychia: 115 (27) no. (%)
  Peripheral edema: 10 (2) no. (%)
  Pruritus: 63 (15) no. (%)
  Rash: 121 (28) no. (%)
  Stomatitis: 77 (18) no. (%)
  Thrombocytopenia: 75 (18) no. (%)
treatment-related AE, Grade ≥3
  Decreased appetite: 1 (0.2) no. (%)
  Dermatitis acneiform: 0 no. (%)
  Diarrhea: 2 (0.5) no. (%)
  Dry skin: 1 (0.2) no. (%)
  Hypoalbuminemia: 0 no. (%)
  Increased alanine aminotransferase: 4 (1) no. (%)
  Increased aspartate aminotransferase: 1 (0.2) no. (%)
  Infusion-related reaction: 0 no. (%)
  Nausea: 1 (0.2) no. (%)
  Paronychia: 2 (0.5) no. (%)
  Peripheral edema: 0 no. (%)
  Pruritus: 1 (0.2) no. (%)
  Rash: 3 (1) no. (%)
  Stomatitis: 1 (0.2) no. (%)
  Thrombocytopenia: 3 (1) no. (%)
